Laboratory results published in US20130046003A1, “PHARMACEUTICAL COMPOSITIONS COMPRISING 4-BROMO-N-(IMIDAZOLIDIN-2-YLIDENE)-1H-BENZIMIDAZOL-5-AMINE FOR TREATING RETINAL DISEASES” (priority 2011, published 2013).

Experiments:
[1] = rats, after an oral dose of brimonidine tartrate; cited from earlier work
[2] = normal DB rabbits, intravenous route, 10-30 minutes post-dose
Procedure: Rabbits were dosed with 4-bromo-N-(imidazolidin-2-ylidene)-1H-benzimidazol-5-amine through intravenous route. Spatial sweep visual evoked potential (sVEP) acuity was assessed with PowerDiva software version 1.8. Recordings were made bilaterally in conscious animals.

[3] = tested on: alpha 2-adrenergic receptor; conditions: known from prior art; all three alpha-2 receptor subtypes; cited from earlier work
[4] = tested on: retina damage caused by blue light; conditions: rats, 1 mg/kg IP one hour before 4 hours blue light exposure (6100-6500 lux); OCT at 7 days post exposure; versus saline
Procedure: Drugs were administered via intraperitoneal injection (IP) at a dose of 1 mg/kg one hour before blue light exposure.
Twenty 4-month old male Sprague-Dawley rats (body weight 470-550 g) were used in this study. The animals were exposed to room light on a 12 hour lighV12 hour dark cycle before the experiment. All animals were dark adapted overnight (16-20 hours) before blue light exposure. Under the intensity of 6100-6500 lux, rats were exposed to blue light for 4 hours. After the blue light, rats were placed in the dark for another 3 days before returning to normal 12 hour light/12 hour dark. Ocular Coherence Tomography (OCT) measurement was performed at 7 days post blue light exposure.

Row | Structure (SMILES) | amount found in urine [1] | visual acuity (sVEP acuity) [2] | alpha 2-adrenergic receptor agonist activity [3] | protection of the retina from damage caused by blue light (retinal thickness measured by OCT) [4]
1 | Brc1c(N=C2NCCN2)ccc2[nH]cnc12 [4-bromo-N-(imidazolidin-2-ylidene)-1H-benzimidazol-5-amine] | trace amounts | enhanced visual acuity | potent alpha 2-adrenergic receptor pan agonist, activating all three alpha-2 receptor subtypes | –
2 | Brc1c(N=C2NCCN2)ccc2nccnc12 [brimonidine, (5-bromo-quinoxalin-6-yl)-imidazolidin-2-ylidene-amine, reference compound] | – | – | – | significantly reduced and protected the retina from the damage caused by blue light
